Measurements: patent US20090012119A1, “FLUOROALKYLPYRROLIDINE DERIVATIVE” (DAIICHI SANKYO COMPANY LIMITED, priority 2005, published 2009)
≈ marks a conversion by molar mass, not a printed value.

Columns and labels:
[1] = tested on: E. coli, NIHJ; test: Antibacterial activity (MIC), standard method of Japanese Society of Chemotherapy; assay type: cell-based; settings: Escherichia coli
Source text: (§1) MIC value is also shown for levofloxacin (LVFX), ciprofloxacin (CPFX), and Comparative Compound (compound of Example 1 in the Patent Document 1) for comparison with the MIC value of the compound of the present invention.

[2] = tested on: Pr. mirabilis, IFO-3849; test: as above; assay type: cell-based; settings: Proteus mirabilis, IFO3849
Source text: as §1

[3] = tested on: Pr. vulgaris, 08601; test: as above; assay type: cell-based; settings: Proteus vulgaris
Source text: as §1

[4] = tested on: Ps. aeruginosa, 32104; test: as above; assay type: cell-based; settings: Pseudomonas aeruginosa
Source text: as §1

[5] = tested on: Ps. aeruginosa, 32121; test: as above; assay type: cell-based; settings: Pseudomonas aeruginosa
Source text: as §1

[6] = tested on: S. aureus, 209P; test: as above; assay type: cell-based; settings: Staphylococcus aureus
Source text: as §1

[7] = tested on: S. aureus, 870307; test: as above; assay type: cell-based; settings: 870307: levofloxacin-resistant methicillin-resistant Staphylococcus aureus
Source text: as §1

[8] = tested on: S. epidermidis, 56500; test: as above; assay type: cell-based; settings: Staphylococcus epidermidis
Source text: as §1

[9] = tested on: S. flexneri, 2A 5503; test: as above; assay type: cell-based; settings: Shigella flexneri, 2A5503
Source text: as §1

[10] = tested on: S. maltophilia, IID-1275; test: as above; assay type: cell-based; settings: Stenotrophomonas maltophilia, IID1275
Source text: as §1

[11] = tested on: S. pneumoniae, J24; test: as above; assay type: cell-based; settings: Streptococcus pneumoniae, J24: penicillin resistant pneumococcus (moderate resistance)
Source text: as §1

[12] = tested on: Ser. marcescens, 10100; test: as above; assay type: cell-based; settings: Serratia marcescens
Source text: as §1

[13] = tested on: Str. faecalis, ATCC-19433; test: as above; assay type: cell-based; settings: Enterococcus faecalis, ATCC19433
Source text: as §1

[14] = tested on: Str. pyogenes, G-36; test: as above; assay type: cell-based; settings: Streptococcus pyogenes, G36
Source text: as §1

[15] = tested on: 6 week old male Slc:ddY mice; test: Single dose toxicity test, intravenous injection; assay type: in vivo
Method: The compounds of the present invention were evaluated for their toxicity in a single dose toxicity test by administering the compounds to 6 week old male Slc:ddY mice. The compound was diluted with 0.1 mol/l NaOH/physiological saline, and filtered through Millex GS filter (0.22 μm) for sterilization. The compound was administered at a rate of 10 ml/kg and 0.2 ml/min in a single dose by intravenous injection. The compound of Example 1 in the Patent Document 1 was used for the Comparative Compound as in the case of Test Example 1.

SMILES	MIC [1]	MIC [2]	MIC [3]	MIC [4]	MIC [5]	MIC [6]	MIC [7]	MIC [8]	MIC [9]	MIC [10]	MIC [11]	MIC [12]	MIC [13]	MIC [14]	Number of dead mice/Total ([15]; Dose 100 mg/kg)	Number of dead mice/Total ([15]; Dose 150 mg/kg)	melting point
CN[C@@H]1CN(c2c(F)cc3c(=O)c(C(=O)O)cn([C@@H]4C[C@@H]4F)c3c2C)C[C@@H]1CF [Compound No. 4, 7-[(3S,4S)-3-fluoromethyl-4-methylaminopyrrolidine-1-yl]-6-fluoro-1-[(2S,1R)-2-fluorocyclopropyl]-1,4-dihydro-8-methyl-4-oxoquinoline-3-carboxylic acid]	≤ 0.003 µg/mL	0.025 µg/mL (≈ 0.0611 µM)	0.006 µg/mL (≈ 0.0147 µM)	0.1 µg/mL (≈ 0.244 µM)	0.05 µg/mL (≈ 0.122 µM)	0.012 µg/mL (≈ 0.0293 µM)	0.39 µg/mL (≈ 0.953 µM)	0.05 µg/mL (≈ 0.122 µM)	0.006 µg/mL (≈ 0.0147 µM)	0.1 µg/mL (≈ 0.244 µM)	0.05 µg/mL (≈ 0.122 µM)	0.05 µg/mL (≈ 0.122 µM)	0.1 µg/mL (≈ 0.244 µM)	0.1 µg/mL (≈ 0.244 µM)	0/5	1/2	
Cc1c(N2C[C@H](CF)[C@H](N)C2)ccc2c(=O)c(C(=O)O)cn(C3CC3)c12 [Compound No. 2, 7-[(3S,4S)-3-amino-4-fluoromethyl-1-pyrrolidinyl]-1-cyclopropyl-1,4-dihydro-8-methyl-4-oxoquinoline-3-carboxylic acid]	≤ 0.003 µg/mL	0.05 µg/mL (≈ 0.139 µM)	0.006 µg/mL (≈ 0.0167 µM)	0.1 µg/mL (≈ 0.278 µM)	0.025 µg/mL (≈ 0.0696 µM)	0.025 µg/mL (≈ 0.0696 µM)	0.78 µg/mL (≈ 2.17 µM)	0.1 µg/mL (≈ 0.278 µM)	0.006 µg/mL (≈ 0.0167 µM)	0.2 µg/mL (≈ 0.556 µM)	0.1 µg/mL (≈ 0.278 µM)	0.05 µg/mL (≈ 0.139 µM)	0.2 µg/mL (≈ 0.556 µM)	0.2 µg/mL (≈ 0.556 µM)			203 to 205 °C
Cc1c(N2C[C@@H](N)[C@@H](C(F)F)C2)c(F)cc2c(=O)c(C(=O)O)cn([C@@H]3C[C@@H]3F)c12 [Compound No. 6, 7-[(3S,4S)-3-amino-4-difluoromethylpyrrolidine-1-yl]-6-fluoro-1-[(1R,2S)-2-fluorocyclopropyl]-8-methyl-1,4-dihydro-4-oxoquinoline-3-carboxylic acid]	≤ 0.003 µg/mL	0.012 µg/mL (≈ 0.029 µM)	0.006 µg/mL (≈ 0.0145 µM)	0.2 µg/mL (≈ 0.484 µM)	0.05 µg/mL (≈ 0.121 µM)	0.012 µg/mL (≈ 0.029 µM)	0.2 µg/mL (≈ 0.484 µM)	0.025 µg/mL (≈ 0.0605 µM)	≤ 0.003 µg/mL	0.05 µg/mL (≈ 0.121 µM)	0.05 µg/mL (≈ 0.121 µM)	0.05 µg/mL (≈ 0.121 µM)	0.1 µg/mL (≈ 0.242 µM)	0.05 µg/mL (≈ 0.121 µM)			214 to 216 °C
Cc1c(N2C[C@H](CF)[C@H](N)C2)c(F)cc2c(=O)c(C(=O)O)cn(C3CC3)c12 [Compound No. 1, 7-[(3S,4S)-3-amino-4-fluoromethyl-1-pyrrolidinyl]-1-cyclopropyl-6-fluoro-1,4-dihydro-8-methyl-4-oxoquinoline-3-carboxylic acid]	≤ 0.003 µg/mL	0.012 µg/mL (≈ 0.0318 µM)	≤ 0.003 µg/mL	0.05 µg/mL (≈ 0.132 µM)	0.025 µg/mL (≈ 0.0662 µM)	0.012 µg/mL (≈ 0.0318 µM)	0.2 µg/mL (≈ 0.53 µM)	0.025 µg/mL (≈ 0.0662 µM)	≤ 0.003 µg/mL	0.1 µg/mL (≈ 0.265 µM)	0.025 µg/mL (≈ 0.0662 µM)	0.025 µg/mL (≈ 0.0662 µM)	0.05 µg/mL (≈ 0.132 µM)	0.1 µg/mL (≈ 0.265 µM)			160 to 165 °C
C[C@H]1COc2c(N3CCN(C)CC3)c(F)cc3c(=O)c(C(=O)O)cn1c23 [LVFX, levofloxacin, reference compound]	0.012 µg/mL (≈ 0.0332 µM)	0.05 µg/mL (≈ 0.138 µM)	0.012 µg/mL (≈ 0.0332 µM)	0.2 µg/mL (≈ 0.553 µM)	0.1 µg/mL (≈ 0.277 µM)	0.2 µg/mL (≈ 0.553 µM)	> 6.25 µg/mL	0.39 µg/mL (≈ 1.08 µM)	0.025 µg/mL (≈ 0.0692 µM)	0.39 µg/mL (≈ 1.08 µM)	0.78 µg/mL (≈ 2.16 µM)	0.1 µg/mL (≈ 0.277 µM)	0.78 µg/mL (≈ 2.16 µM)	0.78 µg/mL (≈ 2.16 µM)			
CN[C@@H]1CN(c2c(F)cc3c(=O)c(C(=O)O)cn(C4CC4)c3c2C)C[C@@H]1CF [Compound No. 5, 1-cyclopropyl-6-fluoro-7-[(3S,4S)-3-fluoromethyl-4-methylaminopyrrolidine-1-yl]-8-methyl-1,4-dihydro-4-oxoquinoline-3-carboxylic acid]	≤ 0.003 µg/mL	0.025 µg/mL (≈ 0.0639 µM)	0.006 µg/mL (≈ 0.0153 µM)	0.2 µg/mL (≈ 0.511 µM)	0.05 µg/mL (≈ 0.128 µM)	0.012 µg/mL (≈ 0.0307 µM)	0.39 µg/mL (≈ 0.996 µM)	0.05 µg/mL (≈ 0.128 µM)	≤ 0.003 µg/mL	0.05 µg/mL (≈ 0.128 µM)	0.05 µg/mL (≈ 0.128 µM)	0.05 µg/mL (≈ 0.128 µM)	0.1 µg/mL (≈ 0.255 µM)	0.1 µg/mL (≈ 0.255 µM)			156 to 158 °C
Cc1c(N2C[C@H](CF)[C@H](N)C2)c(F)cc2c(=O)c(C(=O)O)cn([C@@H]3C[C@@H]3F)c12 [Compound No. 3, 7-[(3S,4S)-3-amino-4-fluoromethyl-1-pyrrolidinyl]-6-fluoro-1-[(2S,1R)-2-fluorocyclopropyl]-1,4-dihydro-8-methyl-4-oxoquinoline-3-carboxylic acid]	0.006 µg/mL (≈ 0.0152 µM)	0.006 µg/mL (≈ 0.0152 µM)	≤ 0.003 µg/mL	0.05 µg/mL (≈ 0.126 µM)	0.025 µg/mL (≈ 0.0632 µM)	0.006 µg/mL (≈ 0.0152 µM)	0.39 µg/mL (≈ 0.986 µM)	0.025 µg/mL (≈ 0.0632 µM)	≤ 0.003 µg/mL	0.1 µg/mL (≈ 0.253 µM)	0.025 µg/mL (≈ 0.0632 µM)	0.025 µg/mL (≈ 0.0632 µM)	0.1 µg/mL (≈ 0.253 µM)	0.05 µg/mL (≈ 0.126 µM)	0/5	0/3♭	
O=C(O)c1cn(C2CC2)c2cc(N3CCNCC3)c(F)cc2c1=O [CPFX, ciprofloxacin, reference compound]	≤ 0.003 µg/mL	0.012 µg/mL (≈ 0.0362 µM)	≤ 0.003 µg/mL	0.05 µg/mL (≈ 0.151 µM)	0.025 µg/mL (≈ 0.0754 µM)	0.1 µg/mL (≈ 0.302 µM)	> 6.25 µg/mL	0.2 µg/mL (≈ 0.604 µM)	0.006 µg/mL (≈ 0.0181 µM)	0.78 µg/mL (≈ 2.35 µM)	0.1 µg/mL (≈ 0.302 µM)	0.025 µg/mL (≈ 0.0754 µM)	0.78 µg/mL (≈ 2.35 µM)	1.56 µg/mL (≈ 4.71 µM)			
COc1c(N2C[C@H](CF)[C@H](N)C2)c(F)cc2c(=O)c(C(=O)O)cn(C3C[C@@H]3F)c12 (stereo partly shown) [Comparative Compound, reference compound]	≤ 0.003 µg/mL	0.025 µg/mL (≈ 0.0608 µM)	0.012 µg/mL (≈ 0.0292 µM)	0.2 µg/mL (≈ 0.486 µM)	0.05 µg/mL (≈ 0.122 µM)	0.012 µg/mL (≈ 0.0292 µM)	0.2 µg/mL (≈ 0.486 µM)	0.05 µg/mL (≈ 0.122 µM)	0.006 µg/mL (≈ 0.0146 µM)	0.2 µg/mL (≈ 0.486 µM)	0.025 µg/mL (≈ 0.0608 µM)	0.05 µg/mL (≈ 0.122 µM)	0.1 µg/mL (≈ 0.243 µM)	0.1 µg/mL (≈ 0.243 µM)	1/5	2/3	
